Reference: ChEMBL document CHEMBL5614413, “Design, synthesis and biological evaluation of amphiphilic benzopyran derivatives as potent antibacterial agents against multidrug-resistant bacteria” (Eur J Med Chem, 2024)
In brackets after ≈: the same amount, converted by molar mass. Activity calls are given as the source filed them. The rule behind the calls is not given here.

Columns and labels:
[1] = system: Staphylococcus aureus; test: Selectivity ratio of MBC for bactericidal activity against methicillin-resistant Staphylococcus aureus ATCC 43300 in presence of 50% human blood to MBC for bactericidal activity against methicillin-resistant Staphylococcus aureus ATCC 43300; type: functional
[2] = system: Staphylococcus aureus; test: (§1) Antibacterial activity against methicillin-resistant Staphylococcus aureus ATCC 43300 infected in sepsis mouse model assessed as reduction in bacterial load in spleen at 10 mg/kg pre-infected with bacteria for 1 hrs followed by continuous compound administration at 12 hrs intervals for 2 days (reference value: 7.45 log10CFU/g); type: functional; settings: time 2 day
[3] = system: Staphylococcus aureus; test: Disruption of preformed biofilm in methicillin-resistant Staphylococcus aureus ATCC 43300 assessed as eradication of biofilm by crystal violet staining method; type: functional, organism-based; settings: dose 2-64 µg/ml
[4] = system: Staphylococcus aureus; test: Antibacterial activity against erythromycin-susceptible Staphylococcus aureus ATCC 25923; type: functional
[5] = system: Pseudomonas aeruginosa; test: Antibacterial activity against penicillin-susceptible Pseudomonas aeruginosa ATCC 27853; type: functional
[6] = system: Staphylococcus aureus; test: Antibacterial activity against methicillin-resistant Staphylococcus aureus ATCC 43300 at 1/2 times of MIC measured after 20 passage; type: functional, organism-based
[7] = system: Staphylococcus aureus; test: (§2) Antibacterial activity against methicillin-resistant Staphylococcus aureus ATCC 43300 infected in sepsis mouse model assessed as reduction in number of surviving bacterial colonies in liver at 10 mg/kg pre-infected with bacteria for 1 hrs followed by continuous compound administration at 12 hrs intervals for 2 days relative to control; type: functional; settings: time 2 day
[8] = system: Staphylococcus aureus; test: Selectivity ratio of MBC for bactericidal activity against methicillin-resistant Staphylococcus aureus ATCC 43300 in presence of 50% human serum to MBC for bactericidal activity against methicillin-resistant Staphylococcus aureus ATCC 43300; type: functional
[9] = system: Staphylococcus aureus; test: Inhibition of biofilm formation in methicillin-resistant Staphylococcus aureus ATCC 43300 at 2 microg/ml relative to control; type: functional
[10] = system: Staphylococcus epidermidis; test: Antibacterial activity erythromycin-susceptible Staphylococcus epidermidis ATCC 12228; type: functional
[11] = system: Staphylococcus aureus; test: (§3) Antibacterial activity against methicillin-resistant Staphylococcus aureus ATCC 43300 infected in sepsis mouse model assessed as decrease in TNF-alpha level in blood at 5 to 10 mg/kg pre-infected with bacteria for 1 hrs followed by continuous compound administration at 12 hrs intervals for 2 days; type: functional, organism-based; settings: dose 5-10 mg/kg, time 2.0 day
[12] = system: Staphylococcus aureus; test: Bacteriostatic activity against methicillin-resistant Staphylococcus aureus ATCC 43300 assessed as inhibition of bacterial growth at 1 times of MIC measured after 24 hrs by time-kill kinetic analysis; type: functional, organism-based
[13] = system: Staphylococcus aureus; test: as §3, with “reduction” for “decrease”, “pathological damages” for “TNF-alpha level”, “liver” for “blood”, “days by H and E staining based analysis” for “days”; type: functional, organism-based; settings: dose 5-10 mg/kg, time 2.0 day
[14] = system: Staphylococcus aureus; test: Inhibition of biofilm formation in methicillin-resistant Staphylococcus aureus ATCC 43300; type: functional, organism-based; settings: dose 2-32 µg/ml
[15] = system: Cell membrane; test: Induction of cytoplasmic membrane permeabilization in methicillin-resistant Staphylococcus aureus ATCC 43300 assessed as increase fluorescence intensity at 16 microg/ml by PI staining based fluorescence analysis; type: cell membranes; settings: dose 16.0 µg/ml
[16] = system: Cell membrane; test: Disruption of cell membrane in methicilin-resistant Staphylococcus aureus ATCC 43300 assessed as appearance of collapsed cell membrane by scanning electron microscopic analysis; type: cell membranes
[17] = system: Staphylococcus aureus; test: Inhibition of biofilm formation in methicillin-resistant Staphylococcus aureus ATCC 43300 at 8 microg/ml relative to control; type: functional
[18] = system: Acinetobacter baumannii; test: Antibacterial activity against Acinetobacter baumannii ATCC 19606; type: functional
[19] = system: Staphylococcus aureus; test: as §2, with “spleen” for “liver”; type: functional; settings: time 2 day
[20] = system: Staphylococcus aureus; test: Disruption of preformed biofilm in methicillin-resistant Staphylococcus aureus ATCC 43300 assessed as eradication of biofilm at 64 microg/ml by crystal violet staining based analysis relative to control; type: functional; settings: dose 64 µg/ml
[21] = system: Staphylococcus aureus; test: Bactericidal activity against methicillin-resistant Staphylococcus aureus ATCC 43300 assessed as log reduction in bacterial growth at 16 microg/ml measured after 4 hrs by time-kill kinetics analysis; type: functional; settings: dose 16 µg/ml
[22] = system: Staphylococcus aureus; test: Bactericidal activity against methicillin-resistant Staphylococcus aureus ATCC 43300 in presence of 50% human serum by Mueller Hinton broth based assay; type: functional
[23] = Hemolytic activity in sheep RBC; type: toxicity, cell-based, Ovis aries, Erythrocyte; settings: sheep red blood cells (erythrocytes)
[24] = system: Staphylococcus aureus; test: Antibacterial activity against penicillin-resistant Staphylococcus aureus ATCC 31007; type: functional
[25] = system: Staphylococcus aureus; test: as §2, with “kidney” for “liver”, “5” for “10”; type: functional; settings: time 2 day
[26] = system: Staphylococcus aureus; test: as §2, with “kidney” for “liver”; type: functional; settings: time 2 day
[27] = system: Staphylococcus aureus; test: as §2, with “blood” for “liver”, “5” for “10”; type: functional; settings: time 2 day
[28] = system: Staphylococcus aureus; test: Antibacterial activity against methicillin-resistant Staphylococcus aureus ATCC 43300; type: functional
[29] = system: Staphylococcus aureus; test: as §3, with “reduction” for “decrease”, “pathological damages” for “TNF-alpha level”, “kidney” for “blood”, “days by H and E staining based analysis” for “days”; type: functional, organism-based; settings: dose 5-10 mg/kg, time 2.0 day
[30] = system: Staphylococcus aureus; test: as §1, with “in kidney” for “in spleen”, “at 5” for “at 10”, “value: 6.75” for “value: 7.45”; type: functional; settings: time 2 day

CCCCN(CCCC)CCCNCCCOc1c(C(C)=O)ccc2c1C=CC(C)(CCC=C(C)C)O2 (stereo not given)
selectivity ratio [1]: 2 | Activity [2]: 2.24 log10CFU/g | Activity [3]: Dose-Dependent Effect | MIC [4]: 2 µg/mL (≈ 3.9 µM) | MIC [5]: 32 µg/mL (≈ 62.4 µM) | Activity [6]: Active | Activity [7]: 99.8% | selectivity ratio [8]: 2 | inhibition at 2 µg/mL [9]: 8.46% | MIC [10]: 1 µg/mL (≈ 1.95 µM) | Activity [11]: Active | Activity [12]: Active | Activity [13]: Active | inhibition [14]: Dose-Dependent Effect | Activity [15]: Active | Activity [16]: Active | inhibition at 8 µg/mL [17]: 37.2% | MIC [18]: 2 µg/mL (≈ 3.9 µM) | Activity [19]: 99.4% | Activity [20]: >40% | log(activity) [21]: 8.35 | MBC [22]: 16 µg/mL | HC50 [23]: 131 µg/mL | MIC [24]: 4 µg/mL (≈ 7.8 µM) | Activity [25]: 99.2% | Activity [26]: 99.9% | Activity [27]: 91.8% | MIC [28]: 2 µg/mL (≈ 3.9 µM) | Activity [29]: Active | Activity [30]: 2.09 log10CFU/g
